Measurements taken from article PMC2646632 (ACS chemical biology, 2008).

System: mouse SMN mRNA
Assay: Real-time PCR of endogenous SMN mRNA in NSC34 cells
Type: cell-based
Conditions: trichostatin A at 100 nM

`CC(/C=C/C(=O)NO)=C\[C@@H](C)C(=O)c1ccc(N(C)C)cc1` [trichostatin A] was tested, and the “Increase of SMN mRNA” value was “two-fold”.
For `Nc1nc(N)c2c(OCC3CCN(Cc4ccccc4F)CC3)cccc2n1` [D156844], the “Increase of SMN mRNA” value was “two-fold”.
